Test system: anticorps anti-nef
Experiment: ELISA for detection of anti-nef antibodies on coated peptides or nef
Format: binding, humain
Conditions: for nombre de sérums anti-nef positifs ayant réagi: ELISA, out of 31 anti-nef positive sera; for intensité de l'immunoréactivité (OD), Serum 1: Serum 1, anti-nef positive; for intensité de l'immunoréactivité (OD), Serum 1 / intensité de l'immunoréactivité (OD), Serum 2 / intensité de l'immunoréactivité (OD), Serum 3 / intensité de l'immunoréactivité (OD), Serum 4 / intensité de l'immunoréactivité (OD), Serum 5 / intensité de l'immunoréactivité (OD), Serum 6 / intensité de l'immunoréactivité (OD), Serum 7 / intensité de l'immunoréactivité (OD), Serum 8 / intensité de l'immunoréactivité (OD), Serum 9 / intensité de l'immunoréactivité (OD), Serum 10 / intensité de l'immunoréactivité (OD), Serum 11 / intensité de l'immunoréactivité (OD), Serum 12 / intensité de l'immunoréactivité (OD), Serum 13 / intensité de l'immunoréactivité (OD), Serum 14 / intensité de l'immunoréactivité (OD), Serum 15 / intensité de l'immunoréactivité (OD), Serum 16 / intensité de l'immunoréactivité (OD), Serum 17 / intensité de l'immunoréactivité (OD), Serum 18 / intensité de l'immunoréactivité (OD), Serum 19 / intensité de l'immunoréactivité (OD), Serum 20 / intensité de l'immunoréactivité (OD), Serum 21 / intensité de l'immunoréactivité (OD), Serum 22 / intensité de l'immunoréactivité (OD), Serum 23 / intensité de l'immunoréactivité (OD), Serum 24 / intensité de l'immunoréactivité (OD), Serum 25 / intensité de l'immunoréactivité (OD), Serum 26 / intensité de l'immunoréactivité (OD), Serum 27 / intensité de l'immunoréactivité (OD), Serum 28 / intensité de l'immunoréactivité (OD), Serum 29 / intensité de l'immunoréactivité (OD), Serum 30 / intensité de l'immunoréactivité (OD), Serum 31 / intensité de l'immunoréactivité (OD), Serum 32 / intensité de l'immunoréactivité (OD), Serum 33: 500 ng coated per well; for intensité de l'immunoréactivité (OD), Serum 2: Serum 2, anti-nef positive; for intensité de l'immunoréactivité (OD), Serum 3: Serum 3, anti-nef positive; for intensité de l'immunoréactivité (OD), Serum 4: Serum 4, anti-nef positive; for intensité de l'immunoréactivité (OD), Serum 5: Serum 5, anti-nef positive; for intensité de l'immunoréactivité (OD), Serum 6: Serum 6, anti-nef positive; for intensité de l'immunoréactivité (OD), Serum 7: Serum 7, anti-nef positive; for intensité de l'immunoréactivité (OD), Serum 8: Serum 8, anti-nef positive; for intensité de l'immunoréactivité (OD), Serum 9: Serum 9, anti-nef positive; for intensité de l'immunoréactivité (OD), Serum 10: Serum 10, anti-nef positive; for intensité de l'immunoréactivité (OD), Serum 11: Serum 11, anti-nef positive; for intensité de l'immunoréactivité (OD), Serum 12: Serum 12, anti-nef positive; for intensité de l'immunoréactivité (OD), Serum 13: Serum 13, anti-nef positive; for intensité de l'immunoréactivité (OD), Serum 14: Serum 14, anti-nef positive; for intensité de l'immunoréactivité (OD), Serum 15: Serum 15, anti-nef positive; for intensité de l'immunoréactivité (OD), Serum 16: Serum 16, anti-nef positive; for intensité de l'immunoréactivité (OD), Serum 17: Serum 17, anti-nef positive; for intensité de l'immunoréactivité (OD), Serum 18: Serum 18, anti-nef positive; for intensité de l'immunoréactivité (OD), Serum 19: Serum 19, anti-nef positive; for intensité de l'immunoréactivité (OD), Serum 20: Serum 20, anti-nef positive; for intensité de l'immunoréactivité (OD), Serum 21: Serum 21, anti-nef positive; for intensité de l'immunoréactivité (OD), Serum 22: Serum 22, anti-nef positive; for intensité de l'immunoréactivité (OD), Serum 23: Serum 23, anti-nef positive; for intensité de l'immunoréactivité (OD), Serum 24: Serum 24, anti-nef positive; for intensité de l'immunoréactivité (OD), Serum 25: Serum 25, anti-nef positive; for intensité de l'immunoréactivité (OD), Serum 26: Serum 26, anti-nef positive; for intensité de l'immunoréactivité (OD), Serum 27: Serum 27, anti-nef positive; for intensité de l'immunoréactivité (OD), Serum 28: Serum 28, anti-nef positive; for intensité de l'immunoréactivité (OD), Serum 29: Serum 29, anti-nef positive; for intensité de l'immunoréactivité (OD), Serum 30: Serum 30, anti-nef positive; for intensité de l'immunoréactivité (OD), Serum 31: Serum 31, anti-nef positive; for intensité de l'immunoréactivité (OD), Serum 32: Serum 32, anti-nef negative control serum; for intensité de l'immunoréactivité (OD), Serum 33: Serum 33, anti-nef negative control serum
Experimental: Des plaques de microtitration à 96 puits ont été recouvertes une nuit avec 500 ng de protéine nef bactérienne, à 37°C ou avec 500 ng de peptides synthétiques par puits dans 50µl de PBS à pH 7,4. Après saturation avec 400 µl de PBS pH 7,4, contenant 5% de caséine, durant 1 heure à 37°C et lavage avec PBS à pH 7,4, 0,5% de BSA, 0,01% tween, 50 µl de sérums à différentes dilutions ont été ajoutés pendant 2 heures à 37°C. Après le rinçage, 50µl de complexes d'IgG de souris anti-humaine-(H + L)-peroxydase 1:1000 ont été incubés pendant 1 heure à 37°C. Après un nouveau rinçage, 100µl de OPD ont été ajoutés pendant 30mn à température ambiante dans l'obscurité. La réaction de l'enzyme a été arrêtée par addition de 50µl d'acide sulfurique 4N et la densité optique des plaques a été lue à 492 nm/620 nm. Les plaques recouvertes avec la caséine ont été utilisées comme contrôle négatif.
En vue d'étudier la possibilité d'utiliser des peptides synthétiques en tant qu'antigènes pour la détection d'anticorps anti-nef chez des patients infectés par HIV, 8 peptides synthétiques couvrant la totalité de la séquence de la protéine nef de HIV-1 (figure 4) ont été utilisés dans un test ELISA avec 31 sérums anti-nef positifs et 2 sérums anti-nef négatifs utilisés comme contrôle. Les recombinants nef ont été utilisés comme contrôle positif dans les tests ELISA et la caséine a été utilisée comme contrôle négatif. Les résultats de ces expériences sont donnés dans le tableau 4 qui illustre l'essai suivant: Essai ELISA sur 31 sérums anti-nef-positifs et 2 sérums anti-nef- négatifs, soit pré-recouverts avec des peptides synthétiques (PF 11 à PF 18), soit en utilisant nef, la caséine ou un mélange de peptides PF 12 et PF 17. Les sérums ont été sélectionnés au hasard parmi des sérums anti-nef positifs et anti-nefs négatifs testés par la méthode RIA en utilisant ¹²⁵I nef. L'intensité de l'immunoradioactivité est notée "-" pour une densité optique (OD) inférieure à 0,2; "+" pour OD = 0,2 à 0,4; "++" pour OD = 0,4 à 0,8 et "+++" pour OD = 0,8 à 2,0.

XCVGFPVTPQVPLRPMTYKAAVDLSHFLKEKGGLEGLIHSQRRQDILZ [PF14]
nombre de sérums anti-nef positifs ayant réagi: 3 | intensité de l'immunoréactivité (OD), Serum 1: - (pour une densité optique (OD) inférieure à 0,2) | intensité de l'immunoréactivité (OD), Serum 2: - (pour une densité optique (OD) inférieure à 0,2) | intensité de l'immunoréactivité (OD), Serum 3: +++ (pour OD = 0,8 à 2,0) | intensité de l'immunoréactivité (OD), Serum 4: - (pour une densité optique (OD) inférieure à 0,2) | intensité de l'immunoréactivité (OD), Serum 5: - (pour une densité optique (OD) inférieure à 0,2) | intensité de l'immunoréactivité (OD), Serum 6: - (pour une densité optique (OD) inférieure à 0,2) | intensité de l'immunoréactivité (OD), Serum 7: - (pour une densité optique (OD) inférieure à 0,2) | intensité de l'immunoréactivité (OD), Serum 8: - (pour une densité optique (OD) inférieure à 0,2) | intensité de l'immunoréactivité (OD), Serum 9: - (pour une densité optique (OD) inférieure à 0,2) | intensité de l'immunoréactivité (OD), Serum 10: - (pour une densité optique (OD) inférieure à 0,2) | intensité de l'immunoréactivité (OD), Serum 11: - (pour une densité optique (OD) inférieure à 0,2) | intensité de l'immunoréactivité (OD), Serum 12: - (pour une densité optique (OD) inférieure à 0,2) | intensité de l'immunoréactivité (OD), Serum 13: - (pour une densité optique (OD) inférieure à 0,2) | intensité de l'immunoréactivité (OD), Serum 14: ++ (pour OD = 0,4 à 0,8) | intensité de l'immunoréactivité (OD), Serum 15: - (pour une densité optique (OD) inférieure à 0,2) | intensité de l'immunoréactivité (OD), Serum 16: - (pour une densité optique (OD) inférieure à 0,2) | intensité de l'immunoréactivité (OD), Serum 17: - (pour une densité optique (OD) inférieure à 0,2) | intensité de l'immunoréactivité (OD), Serum 18: - (pour une densité optique (OD) inférieure à 0,2) | intensité de l'immunoréactivité (OD), Serum 19: - (pour une densité optique (OD) inférieure à 0,2) | intensité de l'immunoréactivité (OD), Serum 20: - (pour une densité optique (OD) inférieure à 0,2) | intensité de l'immunoréactivité (OD), Serum 21: ++ (pour OD = 0,4 à 0,8) | intensité de l'immunoréactivité (OD), Serum 22: - (pour une densité optique (OD) inférieure à 0,2) | intensité de l'immunoréactivité (OD), Serum 23: - (pour une densité optique (OD) inférieure à 0,2) | intensité de l'immunoréactivité (OD), Serum 24: - (pour une densité optique (OD) inférieure à 0,2) | intensité de l'immunoréactivité (OD), Serum 25: - (pour une densité optique (OD) inférieure à 0,2) | intensité de l'immunoréactivité (OD), Serum 26: - (pour une densité optique (OD) inférieure à 0,2) | intensité de l'immunoréactivité (OD), Serum 27: - (pour une densité optique (OD) inférieure à 0,2) | intensité de l'immunoréactivité (OD), Serum 28: - (pour une densité optique (OD) inférieure à 0,2) | intensité de l'immunoréactivité (OD), Serum 29: - (pour une densité optique (OD) inférieure à 0,2) | intensité de l'immunoréactivité (OD), Serum 30: - (pour une densité optique (OD) inférieure à 0,2) | intensité de l'immunoréactivité (OD), Serum 31: - (pour une densité optique (OD) inférieure à 0,2) | intensité de l'immunoréactivité (OD), Serum 32: - (pour une densité optique (OD) inférieure à 0,2) | intensité de l'immunoréactivité (OD), Serum 33: - (pour une densité optique (OD) inférieure à 0,2)

XGGKWSKSSVVGWPTVRERMRRAEPAADGVGAASRDLEKHGAITSSNTA ATNAACAWLEAQEEEEVGZ [PF12, protéine F HIV-1, séquence 1-66]
nombre de sérums anti-nef positifs ayant réagi: 16 | intensité de l'immunoréactivité (OD), Serum 1: + (pour OD = 0,2 à 0,4) | intensité de l'immunoréactivité (OD), Serum 2: - (pour une densité optique (OD) inférieure à 0,2) | intensité de l'immunoréactivité (OD), Serum 3: +++ (pour OD = 0,8 à 2,0) | intensité de l'immunoréactivité (OD), Serum 4: + (pour OD = 0,2 à 0,4) | intensité de l'immunoréactivité (OD), Serum 5: - (pour une densité optique (OD) inférieure à 0,2) | intensité de l'immunoréactivité (OD), Serum 6: - (pour une densité optique (OD) inférieure à 0,2) | intensité de l'immunoréactivité (OD), Serum 7: +++ (pour OD = 0,8 à 2,0) | intensité de l'immunoréactivité (OD), Serum 8: +++ (pour OD = 0,8 à 2,0) | intensité de l'immunoréactivité (OD), Serum 9: +++ (pour OD = 0,8 à 2,0) | intensité de l'immunoréactivité (OD), Serum 10: - (pour une densité optique (OD) inférieure à 0,2) | intensité de l'immunoréactivité (OD), Serum 11: ++ (pour OD = 0,4 à 0,8) | intensité de l'immunoréactivité (OD), Serum 12: ++ (pour OD = 0,4 à 0,8) | intensité de l'immunoréactivité (OD), Serum 13: - (pour une densité optique (OD) inférieure à 0,2) | intensité de l'immunoréactivité (OD), Serum 14: ++ (pour OD = 0,4 à 0,8) | intensité de l'immunoréactivité (OD), Serum 15: - (pour une densité optique (OD) inférieure à 0,2) | intensité de l'immunoréactivité (OD), Serum 16: - (pour une densité optique (OD) inférieure à 0,2) | intensité de l'immunoréactivité (OD), Serum 17: - (pour une densité optique (OD) inférieure à 0,2) | intensité de l'immunoréactivité (OD), Serum 18: - (pour une densité optique (OD) inférieure à 0,2) | intensité de l'immunoréactivité (OD), Serum 19: +++ (pour OD = 0,8 à 2,0) | intensité de l'immunoréactivité (OD), Serum 20: - (pour une densité optique (OD) inférieure à 0,2) | intensité de l'immunoréactivité (OD), Serum 21: ++ (pour OD = 0,4 à 0,8) | intensité de l'immunoréactivité (OD), Serum 22: - (pour une densité optique (OD) inférieure à 0,2) | intensité de l'immunoréactivité (OD), Serum 23: - (pour une densité optique (OD) inférieure à 0,2) | intensité de l'immunoréactivité (OD), Serum 24: - (pour une densité optique (OD) inférieure à 0,2) | intensité de l'immunoréactivité (OD), Serum 25: +++ (pour OD = 0,8 à 2,0) | intensité de l'immunoréactivité (OD), Serum 26: +++ (pour OD = 0,8 à 2,0) | intensité de l'immunoréactivité (OD), Serum 27: - (pour une densité optique (OD) inférieure à 0,2) | intensité de l'immunoréactivité (OD), Serum 28: + (pour OD = 0,2 à 0,4) | intensité de l'immunoréactivité (OD), Serum 29: ++ (pour OD = 0,4 à 0,8) | intensité de l'immunoréactivité (OD), Serum 30: - (pour une densité optique (OD) inférieure à 0,2) | intensité de l'immunoréactivité (OD), Serum 31: +++ (pour OD = 0,8 à 2,0) | intensité de l'immunoréactivité (OD), Serum 32: - (pour une densité optique (OD) inférieure à 0,2) | intensité de l'immunoréactivité (OD), Serum 33: - (pour une densité optique (OD) inférieure à 0,2)
